Assay results from patent US11083724B2, “Rimegepant for CGRP related disorders” (Biohaven Pharmaceutical Holding Company Ltd., priority 2018, dated 2021).

Test system: subjects with Acute Migraines
Assay: Study 303 (BHV3000-303, NCT03461757): Phase 3 double-blind placebo-controlled trial, rimegepant 75 mg ODT, acute treatment of migraine
Type: in vivo, human
Protocol: Clinical Trial—BHV3000-303: Phase 3: Double-Blind, Randomized, Placebo-Controlled, Safety and Efficacy Trial of BHV-3000 (Rimegepant) Orally Discintegrating Tablet (ODT) for the Acute Treatment of Migraine (ClinicalTrials.gov Identifier: NCT03461757) A phase 3 clinical study was conducted with 1812 participants, as follows. The purpose of this study is to compare the efficacy of BHV-3000 (rimegepant ODT) versus placebo in subjects with Acute Migraines. Study Design • Study Type: Interventional (Clinical Trial) • Actual Enrollment: 1812 participants • Allocation: Randomized • Intervention Model: Parallel Assignment • Masking: Triple (Participant, Care Provider, Investigator) • Primary Purpose: Treatment • Official Title: BHV3000-303: Phase 3, Double-Blind, Randomized, Placebo Controlled, Safety and Efficacy Trial of BHV-3000 (Rimegepant) Orally Disintegrating Tablet (ODT) for the Acute Treatment of Migraine • Actual Study Start Date: Feb. 27, 2018 • Actual Primary Completion Date: Oct. 8, 2018 • Actual Study Completion Date: Oct. 15, 2018 Arms and Interventions Outcome Measures Primary Outcome Measures: 1. Pain freedom of rimegepant compared with placebo in the acute treatment of migraine will be measured using the number of evaluable subjects that report no pain at 2 hours post-dose. [Time Frame: Two hours post dose] Pain will be measured on a 4 point Likert scale (0=none, 1=mild, 2=moderate, 3=severe) 2. Freedom from the most bothersome symptom (MBS) of rimegepant compared with placebo will be measured using the number of evaluable subjects that report the absence of their MBS at 2 hours post-dose. [Time Frame: Two hours post dose] The MBS (nausea, phonophobia or photophobia) will measured using a binary scale (0=absent, 1=present). Secondary Outcome Measures: 1. To measure rimegepant compared to placebo on Pain Relief, at 2 hours post-dose, that report a pain level of moderate or severe at baseline and then report a pain level of none or mild. [Time Frame: 2 hours post-dose] Pain Relief as measured by a 4 point numeric rating scale (None, Mild, Moderate, Severe) 2. Functional disability scale [Time Frame: 2 hour post-dose] Subjects self-report “normal” on the functional disability scale 3. […] [Time Frame: 2 hours-24 hours post-dose] Sustained Pain Relief as measured by a 4 point numeric rating scale (None, Mild, Moderate, Severe) 4. […] [Time Frame: 2 to 24 hours post dose] Most bothersome symptom 5. To measure rimegepant compared to placebo on the probability of requiring rescue medication will be assessed using the number of subjects that take rescue medication within […] administration of study medication (BHV3000 or placebo). [Time Frame: up to 24 hours post-dose] Requiring Rescue Medication 6. Sustained ability to function at a normal level as measured by the Functional disability scale [Time Frame: 2 to 24 hours post dose] Subjects self-report “normal” on the functional disability scale 7. […] [Time Frame: 2 hours-48 hours post-dose] Sustained Pain Relief as measured by a 4 point numeric rating scale (None, Mild, Moderate, Severe) 8. Rimegepant compared to placebo on pain freedom from most bothersome symptom from 2-48 hours post dose. [Time Frame: 2 to 48 hours post dose] Most bothersome symptom 9. Sustained ability to function at a normal level as measured by the Functional disability scale [Time Frame: 2 to 48 hours post dose] Subjects self-report “normal” on the functional disability scale 10. Rimegepant compared to placebo by tabulating the number of subjects that report the absence of photophobia at 2 hours post-dose in the subset of subjects that reported the presence of photophobia at headache baseline [Time Frame: 2 hours post-dose] Freedom from Photophobia 11. Functional disability scale [Time Frame: 90 minutes post dose] Subjects self-report “normal” on the functional disability scale 12. […] [Time Frame: 90 minutes post dose] Pain Relief as measured by a 4 point numeric rating scale (None, Mild, Moderate, Severe) 13. […]

[1] = Study 303, n = 669, exploratory
[2] = Study 303, single 75 mg ODT, N = 669

Which “Freedom from MBS at 2 hours, Difference (rimegepant minus placebo)” value (Study 303) does the source give for `N[C@@H]1c2cccnc2[C@H](OC(=O)N2CCC(n3c(=O)[nH]c4ncccc43)CC2)CC[C@H]1c1cccc(F)c1F` [Rimegepant, [(5S,6S,9R)-5-amino-6-(2,3-difluorophenyl)-6,7,8,9-tetrahydro-5H-cyclohepta[b]pyridin-9-yl] 4-(2-oxo-3H-imidazo[4,5-b]pyridin-1-yl)piperidine-1-carboxylate] here?
Its value is 8.3%.

And the “Pain Freedom at 2 hours, Difference (rimegepant minus placebo)” value (Study 303)?
The value was 10.3%.

What about the “incidence of any single adverse event (AE) in the rimegepant group” value (Study 303) of the same compound?
Its value is no more than 1.6%.

And the “patients with LFTs >3×ULN” value (Study 303)?
The value was “one”.

And the “Sustained Pain Relief 3 to 48 hrs” value (Study 303, n = 669)?
Its value is 49.9%.

What about the “Sustained Pain Relief 3 to 24 hrs” value [1] of the same compound?
The value was 56.4%.

And the “Sustained Pain Relief 4 to 24 hrs” value [1]?
The value was 61.7%.

And the “Sustained Pain Relief 4 to 48 hrs” value [1]?
Its value is 54.7%.

What about the “Pain Relief @ 2 hours” value (Study 303, secondary 1) of the same compound?
Its value is 59.3%.

And the “Functional Disability at 2 hours” value (Study 303, secondary 2, self-report normal)?
Its value is 38.1%.

And the “SP Relief (Sustained Pain Relief) 2 to 24 hours” value (Study 303, secondary 3)?
Its value is 47.8%.

What about the “MBS 2 to 24” value (Study 303, secondary 4, sustained freedom from MBS) of the same compound?
The value was 27.1%.

And the “Prob of Rescue Meds in 24 hours” value (Study 303, secondary 5)?
The value was 14.2%.

What about the “Functional Disability 2 to 24” value (Study 303, secondary 6) of the same compound?
The value was 29.6%.

What about the “SP Relief (Sustained Pain Relief) 2 to 48 hours” value (Study 303, secondary 7) of the same compound?
The value was 42.2%.

And the “MBS 2 to 48” value (Study 303, secondary 8)?
The value was 23.2%.

What about the “Functional Disability 2 to 48” value (Study 303, secondary 9) of the same compound?
The value was 26.0%.

What about the “Photophobia @ 2 hours” value (Study 303, secondary 10, freedom from photophobia) of the same compound?
The value was 33.4%.

What about the “Functional Disabilty @ 90 minutes” value (Study 303, secondary 11) of the same compound?
The value was 30.2%.

What about the “Pain Relief @ 90 minutes” value (Study 303, secondary 12) of the same compound?
The value was 49.6%.

And the “SP Freedom 2 to 24 hours” value (Study 303, secondary 13)?
The value was 15.7%.

And the “MBS Freedom at 90 minutes” value (Study 303, secondary 14)?
Its value is 27.4%.

What about the “Pain Freedom @ 90 minutes” value (Study 303, secondary 15) of the same compound?
The value was 15.1%.

What about the “Phonophobia @ 2hours” value (Study 303, secondary 16, freedom from phonophobia) of the same compound?
The value was 41.7%.

What about the “SP Freedom 2 to 48 hours” value (Study 303, secondary 17) of the same compound?
The value was 13.5%.

What about the “Pain Relief at 60 minutes” value (Study 303, secondary 18) of the same compound?
Its value is 36.8%.

What about the “Functional Disability at 60 minutes” value (Study 303, secondary 19) of the same compound?
Its value is 22.3%.

What about the “Nausea @ 2 hours” value (Study 303, secondary 20, freedom from nausea) of the same compound?
The value was 51.0%.

And the “Pain Relpase 2 to 48” value (Study 303, secondary 21)?
The value was 36.6%.

And the “Freedom from MBS at 2 hours” value [2]?
The value was 35.1%.

What about the “Pain Freedom at 2 hours” value [2] of the same compound?
The value was 21.2%.

What about the “clinical benefit through 48 hours on pain relief, pain freedom, most bothersome symptom, functional disability” value (Study 303, single dose, versus placebo) of the same compound?
Its value is “Lasting clinical benefit”.
